{
  "source": "patent US12036203B2",
  "about": "“Methods of treating or reducing the risk of cardiovascular events and related diseases using SGLT-2 inhibitors” (Merck Sharp & Dohme LLC, priority 2016, dated 2024)",
  "origin": "cited, not measured here",
  "conditions": "type 2 diabetes at high cardiovascular risk",
  "data": [
    {"smiles": "OC[C@H]1O[C@@H](c2ccc(Cl)c(Cc3ccc(O[C@H]4CCOC4)cc3)c2)[C@H](O)[C@@H](O)[C@@H]1O", "note": "[empagliflozin]", "values": [
      {"measurement": "rate of hospitalization for heart failure", "setting": "in addition to standard of care, placebo group 4.1%", "value": 2.7, "unit": "%"},
      {"measurement": "rate of death from cardiovascular causes", "setting": "in addition to standard of care, placebo group 5.9%", "value": 3.7, "unit": "%"},
      {"measurement": "rate of death from any cause", "setting": "in addition to standard of care, placebo group 8.3%", "value": 5.7, "unit": "%"},
      {"measurement": "rates of myocardial infarction or stroke", "setting": "vs. placebo", "value": "no significant between-group differences"},
      {"measurement": "relative risk reduction, death from any cause", "setting": "vs. placebo", "value": 32, "unit": "%"},
      {"measurement": "relative risk reduction, death from cardiovascular causes", "setting": "vs. placebo", "value": 38, "unit": "%"},
      {"measurement": "relative risk reduction, hospitalization for heart failure", "setting": "vs. placebo", "value": 35, "unit": "%"}
    ]}
  ]
}
